Values after ≈ are worked out from the molar mass of the structure shown. One block for each compound: values may come before it.
How the values were obtained:
Assay in all cases: In vitro antibacterial evaluation: minimum inhibitory concentration (MIC), broth dilution method
Assay type in all cases: cell-based
Enterococcus sp. = settings: broth dilution, 5×10^5 CFU/mL, 18 hours at 35° C.
Protocol: (§1) The minimum inhibitory concentration (MIC), the lowest concentration of the antibiotic which inhibits growth of the test organism, is determined by the broth dilution method using Muller-Hinton II […] (Baltimore Biological Laboratories) following the recommendations of the National Committee for Clinical Laboratory Standards [Methods for dilution antimicrobial susceptibility tests for bacteria that grow aerobically, approved standard M7-A2, National Committee for Clinical Laboratory Standards, Villanova, Pa].
(§2) An inoculum level of 5×10^5 CFU/mL, and a range of antibiotic concentrations (64-0.06 μg/mL) is used. […] The test organisms include a spectrum of Gram-positive bacteria comprised of Staphylococcus sp., Streptococcus sp. and Enterococcus sp. These organisms include recent clinical isolates that are resistant to methicillin, penicillin and/or vancomycin.

Staphylococcus sp. = settings: for MIC Staphylococcus aureus (ATCC 29213): strain ATCC 29213; for MIC Staphylococcus aureus (GC 1131): strain GC 1131; for MIC Staphylococcus aureus (GC 3051): strain GC 3051; for MIC Staphylococcus aureus (GC 3053): strain GC 3053; for MIC Staphylococcus aureus (GC 4541): strain GC 4541; for MIC Staphylococcus aureus (GC 4542): strain GC 4542; for MIC Staphylococcus aureus (GC 4544): strain GC 4544; for MIC Staphylococcus aureus (GC 4545): strain GC 4545
Protocol: as §1, §2

Escherichia coli = settings: 5×10^5 CFU/mL, 18 hours at 35° C.
Protocol: as §1, §2

Streptococcus sp. = settings: broth dilution, 5×10^5 CFU/mL, 18 hours at 35° C.
Protocol: as §1, §2

[1] = broth dilution, 5×10^5 CFU/mL, 18 hours at 35° C.
[2] = broth dilution, 18 hours at 35° C.
[3] = strain GC 4543, broth dilution, 18 hours at 35° C.
[4] = strain GC 4546, broth dilution, 18 hours at 35° C.
[5] = strain GC 4547, broth dilution, 18 hours at 35° C.
[6] = strain GC 4548, broth dilution, 18 hours at 35° C.
[7] = strain GC 4549, broth dilution, 18 hours at 35° C.
[8] = strain GC 4551, broth dilution, 18 hours at 35° C.
[9] = strain GC 6257, broth dilution, 18 hours at 35° C.

MIC Enterococccus avium (GC 4558) (Enterococcus sp.): 4 µg/mL (≈ 2.75 µM) | MIC Enterococccus faecalis (ATCC 29212) (Enterococcus sp.): 4 µg/mL (≈ 2.75 µM) | MIC Enterococccus faecalis (GC 2691) (Enterococcus sp.): 4 µg/mL (≈ 2.75 µM) | MIC Enterococccus faecalis (GC 3059) (Enterococcus sp.): 4 µg/mL (≈ 2.75 µM) | MIC Enterococccus faecalis (GC 4552) (Enterococcus sp.): 4 µg/mL (≈ 2.75 µM) | MIC Enterococccus faecalis (GC 4553) (Enterococcus sp.): 4 µg/mL (≈ 2.75 µM) | MIC Enterococccus faecalis (GC 4554) (Enterococcus sp.): 4 µg/mL (≈ 2.75 µM) | MIC Enterococccus faecalis (GC 6189) (Enterococcus sp.): 4 µg/mL (≈ 2.75 µM) | MIC Enterococccus faecium (GC 2243) (Enterococcus sp.): 4 µg/mL (≈ 2.75 µM) | MIC Enterococccus faecium (GC 4556) (Enterococcus sp.): 4 µg/mL (≈ 2.75 µM) | MIC Enterococccus faecium (GC 4557) (Enterococcus sp.): 4 µg/mL (≈ 2.75 µM) | MIC Enterococcus faecalis (GC 2242) (Enterococcus sp.): 4 µg/mL (≈ 2.75 µM) | MIC Coagulase Negative Staphylococcus (GC 4547) (Staphylococcus sp.; [1]): 4 µg/mL (≈ 2.75 µM) | MIC Coagulase Negative Staphylococcus (GC 4548) (Staphylococcus sp.; [1]): 2 µg/mL (≈ 1.37 µM) | MIC Coagulase Negative Staphylococcus (GC 4549) (Staphylococcus sp.; [1]): 2 µg/mL (≈ 1.37 µM) | MIC Coagulase Negative Staphylococcus (GC 4551) (Staphylococcus sp.; [1]): 4 µg/mL (≈ 2.75 µM) | MIC Coagulase Negative Staphylococcus (GC 6257) (Staphylococcus sp.; [1]): 2 µg/mL (≈ 1.37 µM) | MIC Staphylococcus aureus-SMITH (GC 4543) (Staphylococcus sp.; [1]): 2 µg/mL (≈ 1.37 µM) | MIC Staphylococcus aureus (ATCC 29213) (Staphylococcus sp.): 2 µg/mL (≈ 1.37 µM) | MIC Staphylococcus aureus (ATCC 29213) (Staphylococcus sp.; [2]): 2 µg/mL (≈ 1.37 µM) | MIC Staphylococcus aureus (GC 1131) (Staphylococcus sp.): 4 µg/mL (≈ 2.75 µM) | MIC Staphylococcus aureus (GC 1131) (Staphylococcus sp.; [2]): 4 µg/mL (≈ 2.75 µM) | MIC Staphylococcus aureus (GC 3051) (Staphylococcus sp.): 2 µg/mL (≈ 1.37 µM) | MIC Staphylococcus aureus (GC 3051) (Staphylococcus sp.; [2]): 2 µg/mL (≈ 1.37 µM) | MIC Staphylococcus aureus (GC 3053) (Staphylococcus sp.): 2 µg/mL (≈ 1.37 µM) | MIC Staphylococcus aureus (GC 3053) (Staphylococcus sp.; [2]): 2 µg/mL (≈ 1.37 µM) | MIC Staphylococcus aureus (GC 4541) (Staphylococcus sp.): 2 µg/mL (≈ 1.37 µM) | MIC Staphylococcus aureus (GC 4541) (Staphylococcus sp.; [2]): 2 µg/mL (≈ 1.37 µM) | MIC Staphylococcus aureus (GC 4542) (Staphylococcus sp.): 2 µg/mL (≈ 1.37 µM) | MIC Staphylococcus aureus (GC 4542) (Staphylococcus sp.; [2]): 2 µg/mL (≈ 1.37 µM) | MIC Staphylococcus aureus-SMITH (GC 4543) (Staphylococcus sp.; [3]): 2 µg/mL (≈ 1.37 µM) | MIC Staphylococcus aureus (GC 4544) (Staphylococcus sp.): 4 µg/mL (≈ 2.75 µM) | MIC Staphylococcus aureus (GC 4544) (Staphylococcus sp.; [2]): 4 µg/mL (≈ 2.75 µM) | MIC Staphylococcus aureus (GC 4545) (Staphylococcus sp.): 2 µg/mL (≈ 1.37 µM) | MIC Staphylococcus aureus (GC 4545) (Staphylococcus sp.; [2]): 2 µg/mL (≈ 1.37 µM) | MIC Coagulase Negative Staphylococcus (GC 4547) (Staphylococcus sp.; [5]): 4 µg/mL (≈ 2.75 µM) | MIC Coagulase Negative Staphylococcus (GC 4548) (Staphylococcus sp.; [6]): 2 µg/mL (≈ 1.37 µM) | MIC Coagulase Negative Staphylococcus (GC 4549) (Staphylococcus sp.; [7]): 2 µg/mL (≈ 1.37 µM) | MIC Coagulase Negative Staphylococcus (GC 4551) (Staphylococcus sp.; [8]): 4 µg/mL (≈ 2.75 µM) | MIC Coagulase Negative Staphylococcus (GC 6257) (Staphylococcus sp.; [9]): 2 µg/mL (≈ 1.37 µM) | MIC Escherichia coli (ATCC 25922) (Escherichia coli): 32 µg/mL (≈ 22 µM) | MIC Escherichia coli (GC 4559) (Escherichia coli): 32 µg/mL (≈ 22 µM) | MIC Escherichia coli (GC 4560) (Escherichia coli): 4 µg/mL (≈ 2.75 µM) | MIC Streptococcus agalactiae (GC 4564) (Streptococcus sp.): 0.25 µg/mL (≈ 0.172 µM) | MIC Streptococcus pneumoniae (GC 1894) (Streptococcus sp.): <0.06 µg/mL | MIC Streptococcus pneumoniae (GC 4565) (Streptococcus sp.): 0.12 µg/mL (≈ 0.0824 µM) | MIC Streptococcus pneumonine (ATCC 6301) (Streptococcus sp.): 0.25 µg/mL (≈ 0.172 µM) | MIC Streptococcus pyogenes (GC 4563) (Streptococcus sp.): 0.5 µg/mL (≈ 0.344 µM)
SMILES: CC(c1ccccc1)C1NC(=O)CNC(=O)C(CO)NC(=O)C(C(O)C2CNC(=N)N2C2OC(CO)C(O)C(O)C2O)NC(=O)C(C(O)C2CNC(=N)N2)NC(=O)C(Cc2ccc(OC3OC(CO)C(OC4OC(CO)C(O)C5OC(CC67CC8CC(CC(C8)C6)C7)OC45)C(O)C3O)cc2)NC1=O (stereo not shown) [Example 128]
MIC Staphylococcus haemolyticus (GC 4546) (Staphylococcus sp.; [1]): 2 µg/mL (≈ 1.37 µM) | MIC Staphylococcus haemolyticus (GC 4546) (Staphylococcus sp.; [4]): 2 µg/mL (≈ 1.37 µM)

MIC Enterococccus avium (GC 4558) (Enterococcus sp.): 2 µg/mL (≈ 1.37 µM) | MIC Enterococccus faecalis (ATCC 29212) (Enterococcus sp.): 2 µg/mL (≈ 1.37 µM) | MIC Enterococccus faecalis (GC 2691) (Enterococcus sp.): 2 µg/mL (≈ 1.37 µM) | MIC Enterococccus faecalis (GC 3059) (Enterococcus sp.): 2 µg/mL (≈ 1.37 µM) | MIC Enterococccus faecalis (GC 4552) (Enterococcus sp.): 2 µg/mL (≈ 1.37 µM) | MIC Enterococccus faecalis (GC 4553) (Enterococcus sp.): 2 µg/mL (≈ 1.37 µM) | MIC Enterococccus faecalis (GC 4554) (Enterococcus sp.): 2 µg/mL (≈ 1.37 µM) | MIC Enterococccus faecalis (GC 6189) (Enterococcus sp.): 2 µg/mL (≈ 1.37 µM) | MIC Enterococccus faecium (GC 2243) (Enterococcus sp.): 2 µg/mL (≈ 1.37 µM) | MIC Enterococccus faecium (GC 4556) (Enterococcus sp.): 2 µg/mL (≈ 1.37 µM) | MIC Enterococccus faecium (GC 4557) (Enterococcus sp.): 2 µg/mL (≈ 1.37 µM) | MIC Enterococcus faecalis (GC 2242) (Enterococcus sp.): 2 µg/mL (≈ 1.37 µM) | MIC Coagulase Negative Staphylococcus (GC 4547) (Staphylococcus sp.; [1]): 2 µg/mL (≈ 1.37 µM) | MIC Coagulase Negative Staphylococcus (GC 4548) (Staphylococcus sp.; [1]): 1 µg/mL (≈ 0.687 µM) | MIC Coagulase Negative Staphylococcus (GC 4549) (Staphylococcus sp.; [1]): 1 µg/mL (≈ 0.687 µM) | MIC Coagulase Negative Staphylococcus (GC 4551) (Staphylococcus sp.; [1]): 4 µg/mL (≈ 2.75 µM) | MIC Coagulase Negative Staphylococcus (GC 6257) (Staphylococcus sp.; [1]): 1 µg/mL (≈ 0.687 µM) | MIC Staphylococcus aureus-SMITH (GC 4543) (Staphylococcus sp.; [1]): 2 µg/mL (≈ 1.37 µM) | MIC Staphylococcus aureus (ATCC 29213) (Staphylococcus sp.): 4 µg/mL (≈ 2.75 µM) | MIC Staphylococcus aureus (ATCC 29213) (Staphylococcus sp.; [2]): 4 µg/mL (≈ 2.75 µM) | MIC Staphylococcus aureus (GC 1131) (Staphylococcus sp.): 2 µg/mL (≈ 1.37 µM) | MIC Staphylococcus aureus (GC 1131) (Staphylococcus sp.; [2]): 2 µg/mL (≈ 1.37 µM) | MIC Staphylococcus aureus (GC 3051) (Staphylococcus sp.): 2 µg/mL (≈ 1.37 µM) | MIC Staphylococcus aureus (GC 3051) (Staphylococcus sp.; [2]): 2 µg/mL (≈ 1.37 µM) | MIC Staphylococcus aureus (GC 3053) (Staphylococcus sp.): 2 µg/mL (≈ 1.37 µM) | MIC Staphylococcus aureus (GC 3053) (Staphylococcus sp.; [2]): 2 µg/mL (≈ 1.37 µM) | MIC Staphylococcus aureus (GC 4541) (Staphylococcus sp.): 2 µg/mL (≈ 1.37 µM) | MIC Staphylococcus aureus (GC 4541) (Staphylococcus sp.; [2]): 2 µg/mL (≈ 1.37 µM) | MIC Staphylococcus aureus (GC 4542) (Staphylococcus sp.): 2 µg/mL (≈ 1.37 µM) | MIC Staphylococcus aureus (GC 4542) (Staphylococcus sp.; [2]): 2 µg/mL (≈ 1.37 µM) | MIC Staphylococcus aureus-SMITH (GC 4543) (Staphylococcus sp.; [3]): 2 µg/mL (≈ 1.37 µM) | MIC Staphylococcus aureus (GC 4544) (Staphylococcus sp.): 2 µg/mL (≈ 1.37 µM) | MIC Staphylococcus aureus (GC 4544) (Staphylococcus sp.; [2]): 2 µg/mL (≈ 1.37 µM) | MIC Staphylococcus aureus (GC 4545) (Staphylococcus sp.): 2 µg/mL (≈ 1.37 µM) | MIC Staphylococcus aureus (GC 4545) (Staphylococcus sp.; [2]): 2 µg/mL (≈ 1.37 µM) | MIC Coagulase Negative Staphylococcus (GC 4547) (Staphylococcus sp.; [5]): 2 µg/mL (≈ 1.37 µM) | MIC Coagulase Negative Staphylococcus (GC 4548) (Staphylococcus sp.; [6]): 1 µg/mL (≈ 0.687 µM) | MIC Coagulase Negative Staphylococcus (GC 4549) (Staphylococcus sp.; [7]): 1 µg/mL (≈ 0.687 µM) | MIC Coagulase Negative Staphylococcus (GC 4551) (Staphylococcus sp.; [8]): 4 µg/mL (≈ 2.75 µM) | MIC Coagulase Negative Staphylococcus (GC 6257) (Staphylococcus sp.; [9]): 1 µg/mL (≈ 0.687 µM) | MIC Escherichia coli (ATCC 25922) (Escherichia coli): 32 µg/mL (≈ 22 µM) | MIC Escherichia coli (GC 4559) (Escherichia coli): 32 µg/mL (≈ 22 µM) | MIC Escherichia coli (GC 4560) (Escherichia coli): 2 µg/mL (≈ 1.37 µM) | MIC Streptococcus agalactiae (GC 4564) (Streptococcus sp.): <0.06 µg/mL | MIC Streptococcus pneumoniae (GC 1894) (Streptococcus sp.): <0.06 µg/mL | MIC Streptococcus pneumoniae (GC 4565) (Streptococcus sp.): <0.06 µg/mL | MIC Streptococcus pneumonine (ATCC 6301) (Streptococcus sp.): <0.06 µg/mL | MIC Streptococcus pyogenes (GC 4563) (Streptococcus sp.): <0.06 µg/mL
SMILES: CC(c1ccccc1)C1NC(=O)CNC(=O)C(CO)NC(=O)C(C(O)C2CNC(=N)N2C2OC(CO)C(O)C(O)C2O)NC(=O)C(C(O)C2CNC(=N)N2)NC(=O)C(Cc2ccc(OC3OC(CO)C(OC4OC5COC(CC67CC8CC(CC(C8)C6)C7)OC5C(O)C4O)C(O)C3O)cc2)NC1=O (stereo not shown) [Example 129]
MIC Staphylococcus haemolyticus (GC 4546) (Staphylococcus sp.; [1]): 2 µg/mL (≈ 1.37 µM) | MIC Staphylococcus haemolyticus (GC 4546) (Staphylococcus sp.; [4]): 2 µg/mL (≈ 1.37 µM)

From patent US8247211B2, “Glycopeptide antibiotics” (American Cyanamid Company, priority 2001, dated 2012)
